In brackets after ≈: the same amount, converted by molar mass. Structures can show the parent of a compound that is named as a salt. Where two headings read alike, the source gives them in different places.
Assays:
SF-268 = assay: XTT proliferation assay, SF-268; format: cell-based; conditions: Homo sapiens, read-out: XTT Proliferationsassay, EC50 SF-268
Text: (§1) Die Substanzen 1,2, 4-6 wurden in einem Proliferationstest an etablierten Tumorzelllinien auf ihre anti-proliferative Aktivität hin untersucht (D.A. Scuderio et al. Cancer Res. 1988, 48, 4827-4833). Der verwendete Test bestimmt die zelluläre Dehydrogenase-Aktivität und ermöglicht eine Bestimmung der Zellvitalität und indirekt der Zellzahl. Bei den verwendeten Zelllinien handelt es sich um die humane Cervixkarzinom Zelllinie KB/HeLa (ATCC CCL17), die ovariale Adenokarzinomzelllinie SKOV-3 (ATCC HTB77), die humane Glioblastom Zelllinie SF-268 (NCI 503138) und die Lungenkarzinom Zelllinie NCI-H460 (NCI 503473). Des weiteren wurde zur Untersuchung der Zellzyklus-spezifischen Wirkung der Substanz ein RKOp27 Zellsystem verwendet (M. Schmidt et al. Oncogene19(20):2423-9, 2000). Bei RKO handelt es sich um eine humane Kolonkarzinomlinie, in der der Zellzyklusinhibitor p27 ^kip1 mittels des Ecdyson Expressionssystems induziert zur Expression gebracht und zu einem Zellzyklusarrest spezifisch in G2 geführt werden kann. Eine unspezifisch wirkende Substanz hemmt die Proliferation unabhängig davon, ob die RKO Zelle in G1 oder G2 arretiert ist oder nicht. Zellzyklus-spezifische Substanzen wie beispielsweise Tubulininhibitoren sind hingegen nur dann zytotoxisch, wenn Zellen nicht arretiert sind und der Zellzyklus durchlaufen wird. In Tabelle 1 ist die zytotoxische bzw. wachstumshemmende Aktivität der beschriebenen Verbindungen mit / ohne Expression von p27^kip1gezeigt. Die getesteten Verbindungen zeigten im induzierten Zustand von p27^kiP1 keine zytotoxische Aktivität. Die Ergebnisse zeigen eine sehr potente Hemmung der Proliferation ausgewählter Tumorzelllinien durch die genannten Substanzen.

SKOV-3 = assay: XTT proliferation assay, SKOV-3; format: cell-based; conditions: Homo sapiens, SK-OV-3; read-out: XTT Proliferationsassay, EC50 SKOV3
Text: as §1

A431 = assay: XTT proliferation assay, A431; format: cell-based, human; conditions: for EC50: Homo sapiens, A-431, A431, read-out: XTT Proliferationsassay, EC50 A431
Text: as §1, with “Substanzen. Tabelle 1:” for “Substanzen.”
(§2) Zur weiteren Charakterisierung wurden die Substanzen 1-6 an einem Panel von 7 humanen Tumorzelllinien auf ihre anti-proliferative Wirkung hin untersucht. Bei den untersuchten Zelllinien handelt es sich um die humanen Glioma Zelllinien A172 (ATCC CRL-1620) und U118 (ATCC HTB-15), die humane Lungenkarzinom Zelllinie A549, das humane epidermoide Karzinom A431 (ATCC CRL-2592), die humanen Prostatakarzinom Zelllinien DU145 (ATCC HTB-81) und PC3 (ATCC CRL-1435) und die humane Kolon Adenokarzinomzelllinie HT29 (ATCC HTB-38). Es handelt sich hierbei um sehr gut charakterisierte, etablierte Zelllinien, die von ATCC, ECACC bzw. NCI erhalten und in Kultur genommen wurden. Die in Tab. […]

L1210VCR = assay: XTT proliferation assay, L1210VCR (resistant); format: cell-based, murine; conditions: Mus musculus; read-out: XTT Proliferationsassay, EC50 L1210VCR
Text: as §1, with “Substanzen. Tabelle 1:” for “Substanzen.”
(§3) Zur weiteren Charakterisierung wurden die Substanzen 1,2,4-6 gegenüber multi drug resistenten Zelllinien im Vergleich zu den nicht-resistenten Wildtypzelllinien untersucht.
(§4) Bei den untersuchten Zelllinien handelt es sich um die murine L1210, die akute myeloische Leukaemie Zelllinie LT12 und um die resistenten Linien L1210/mdr und LT12/mdr. Außerdem wurden die murine P388 Zelllinie (methyl-cholanthreneinduced lymphoid neoplasm) sowie die Doxorubicin-resistente P388 als Testsysteme herangezogen.

LT12 = assay: XTT proliferation assay, LT12 (wild type); format: cell-based; conditions: Rattus norvegicus, LT12; read-out: XTT Proliferationsassay, EC50 LT12
Text: as §1, with “Substanzen. Tabelle 1:” for “Substanzen.”
as §3, §4

P388ADR = assay: XTT proliferation assay, P388ADR (doxorubicin-resistant); format: cell-based, murine; conditions: Mus musculus, P388/ADR; read-out: XTT Proliferationsassay, EC50 P388ADR
Text: as §1, with “Substanzen. Tabelle 1:” for “Substanzen.”
as §3, §4

PC3 = assay: XTT proliferation assay, PC3; format: cell-based, human; conditions: for EC50: Homo sapiens, PC-3, PC3, read-out: XTT Proliferationsassay, EC50 PC3
Text: as §1, with “Substanzen. Tabelle 1:” for “Substanzen.”
as §2

NCI-H460 = assay: XTT proliferation assay, NCI-H460; format: cell-based; conditions: Homo sapiens, read-out: XTT Proliferationsassay, EC50 NCI-H460
Text: as §1

DU145 = assay: XTT proliferation assay, DU145; format: cell-based, human; conditions: for EC50: Homo sapiens, DU-145, DU145, read-out: XTT Proliferationsassay, EC50 DU145
Text: as §1, with “Substanzen. Tabelle 1:” for “Substanzen.”
as §2

KB/HeLa = assay: XTT proliferation assay, KB/HeLa; format: cell-based; conditions: Homo sapiens, read-out: XTT Proliferationsassay, EC50 KB/Hela
Text: as §1

P388 = assay: XTT proliferation assay, P388 (wild type); format: cell-based, murine; conditions: Mus musculus, P388; read-out: XTT Proliferationsassay, EC50 P388
Text: as §1, with “Substanzen. Tabelle 1:” for “Substanzen.”
as §3, §4

RKOp27 = assay: XTT proliferation assay, RKOp27 cell system with / without induced p27kip1 expression; format: cell-based; conditions: Homo sapiens
Text: as §1

L1210 = assay: XTT proliferation assay, L1210 (wild type); format: cell-based, murine; conditions: Mus musculus, L1210; read-out: XTT Proliferationsassay, EC50 L1210
Text: as §1, with “Substanzen. Tabelle 1:” for “Substanzen.”
as §3, §4

LT12mdr = assay: XTT proliferation assay, LT12mdr (resistant); format: cell-based; conditions: read-out: XTT Proliferationsassay, EC50 LT12mdr
Text: as §1, with “Substanzen. Tabelle 1:” for “Substanzen.”
as §3, §4

HT29 = assay: XTT proliferation assay, HT29; format: cell-based, human; conditions: for EC50: Homo sapiens, HT-29, HT29, read-out: XTT Proliferationsassay, EC50 HT29
Text: as §1, with “Substanzen. Tabelle 1:” for “Substanzen.”
as §2

A172 = assay: XTT proliferation assay, A172; format: cell-based, human; conditions: for EC50: Homo sapiens, A 172, A172, read-out: XTT Proliferationsassay, EC50 A172
Text: as §1, with “Substanzen. Tabelle 1:” for “Substanzen.”
as §2

A549 = assay: XTT proliferation assay, A549; format: cell-based, human; conditions: for EC50: Homo sapiens, A549, A549, read-out: XTT Proliferationsassay, EC50 A549
Text: as §1, with “Substanzen. Tabelle 1:” for “Substanzen.”
as §2

Rindertubulin = assay: Inhibition of tubulin polymerisation in vitro; format: biochemical, Rind; conditions: Tubulin with 30% MAPs, mean of two independent experiments
Text: In diesem Test wird durch Zyklen von Polymerisation und Depolymerisation aufgereinigtes Tubulin eingesetzt, welches durch Zugabe von GTP und Erwärmung zur Polymerisation gebracht wird. […]

U118MG = assay: XTT proliferation assay, U118MG; format: cell-based; conditions: Homo sapiens, U-118-MG; read-out: XTT Proliferationsassay, EC50 U118MG
Text: as §1, with “Substanzen. Tabelle 1:” for “Substanzen.”
as §2

[1] = RKOP27, without expression of p27kip1, read-out: XTT Proliferationsassay, EC50 RKOP27
[2] = RKOP27 ind., p27kip1 expression induced (cells arrested), read-out: XTT Proliferationsassay, EC50 RKOP27 ind.

Row | Structure (SMILES) | EC50 (SF-268) | EC50 (SKOV-3) | EC50 (A431) | EC50 (L1210VCR) | EC50 (LT12) | EC50 (P388ADR) | EC50 (PC3) | EC50 (NCI-H460) | EC50 (DU145) | EC50 (KB/HeLa) | EC50 (P388) | EC50 (RKOp27; [1]) | EC50 (RKOp27; [2]) | EC50 (L1210) | EC50 (LT12mdr) | EC50 (HT29) | EC50 (A172) | EC50 (A549) | EC50 (U118MG) | Hemmung der Tubulin-Polymerisation, EC50 (Rindertubulin) | further results
1 | Cc1ccc2cc(NC(=O)C(=O)c3cn(Cc4ccc(Cl)cc4)c4ccccc34)ccc2n1 [Verbindung 1, 2-[1-(4-Chlor-benzyl)-1 H-indol-3-yl]-N-(2-methyl-chinolin-6-yl)-2-oxo-acetamid, reference compound] | 0.261 µg/mL (≈ 0.575 µM) | 0.174 µg/mL (≈ 0.383 µM) | 0.076 µg/mL (≈ 0.167 µM) | 0.304 µg/mL (≈ 0.67 µM) | 0.133 µg/mL (≈ 0.293 µM) | 0.212 µg/mL (≈ 0.467 µM) | 0.199 µg/mL (≈ 0.438 µM) | 0.344 µg/mL (≈ 0.758 µM) | 0.329 µg/mL (≈ 0.725 µM) | 0.183 µg/mL (≈ 0.403 µM) | 0.13 µg/mL (≈ 0.286 µM) | 0.23 µg/mL (≈ 0.507 µM) | > 3.16 µg/mL | 0.233 µg/mL (≈ 0.513 µM) | 0.218 µg/mL (≈ 0.48 µM) | 0.266 µg/mL (≈ 0.586 µM) | 0.165 µg/mL (≈ 0.363 µM) | 0.304 µg/mL (≈ 0.67 µM) | – | – | Hemmung der Tubulin-Polymerisation, EC50 (Rindertubulin; listed as 1 (V)): 1.16 µg/mL
2 | O=C(Nc1ccc2[nH]ncc2c1)C(=O)c1cn(Cc2ccc(Cl)cc2)c2ccccc12 [Verbindung 6, 2-[1-(4-Chlor-benzyl)-1H-indol-3-yl]-N-(1H-indazol-5-yl)-2-oxo-acetamid] | > 3.16 µg/mL | 0.144 µg/mL (≈ 0.336 µM) | 0.07 µg/mL (≈ 0.163 µM) | 0.241 µg/mL (≈ 0.562 µM) | 0.084 µg/mL (≈ 0.196 µM) | 0.231 µg/mL (≈ 0.539 µM) | 0.093 µg/mL (≈ 0.217 µM) | 0.233 µg/mL (≈ 0.543 µM) | 0.506 µg/mL (≈ 1.18 µM) | 0.335 µg/mL (≈ 0.781 µM) | 0.175 µg/mL (≈ 0.408 µM) | 0.148 µg/mL (≈ 0.345 µM) | > 3.16 µg/mL | 0.246 µg/mL (≈ 0.574 µM) | 0.093 µg/mL (≈ 0.217 µM) | 0.059 µg/mL (≈ 0.138 µM) | 0.342 µg/mL (≈ 0.797 µM) | 0.323 µg/mL (≈ 0.753 µM) | 0.097 µg/mL (≈ 0.226 µM) | 1.26 µg/mL | –
3 | CC[C@]1(O)C[C@H]2CN(CCc3c([nH]c4ccccc34)[C@@](C(=O)OC)(c3cc4c(cc3OC)N(C=O)[C@H]3[C@@](O)(C(=O)OC)[C@H](OC(C)=O)[C@]5(CC)C=CCN6CC[C@]43[C@@H]65)C2)C1 [vincristine, reference compound] | – | – | – | – | – | – | – | – | – | – | – | – | – | – | – | – | – | – | – | 0.35 µg/mL | –
4 | O=C1c2c(O)ccc(O)c2C(=O)c2c(NCCNCCO)ccc(NCCNCCO)c21 [mitoxantron, reference compound] | – | – | – | – | – | 0.608 µg/mL (≈ 1.37 µM) | – | – | – | – | – | – | – | – | – | – | – | – | – | – | –
5 | Cc1ccc2cc(NC(=O)C(=O)c3cn(Cc4ccc(Cl)cc4)c4ccccc34)ccc2n1 [Verbindung 3, 6-{2-[1-(4-Chlor-benzyl)-1 H-indol-3-yl]-2-oxo-acetylamino}-2-methyl-chinolin Hydrochlorid, reference compound] | – | – | – | – | – | – | – | – | – | – | – | – | – | – | – | – | – | – | 0.142 µg/mL | – | XTT Proliferationsassay, EC50 A431 (A431; A431, listed as 3 (V)): 0.075 µg/mL; XTT Proliferationsassay, EC50 PC3 (PC3; PC3, listed as 3 (V)): 0.165 µg/mL; XTT Proliferationsassay, EC50 DU145 (DU145; DU145, listed as 3 (V)): 0.426 µg/mL; XTT Proliferationsassay, EC50 HT29 (HT29; HT29, listed as 3 (V)): 0.219 µg/mL; XTT Proliferationsassay, EC50 A172 (A172; A172, listed as 3 (V)): 0.171 µg/mL; XTT Proliferationsassay, EC50 A549 (A549; A549, listed as 3 (V)): 0.405 µg/mL

— EP1484329A1, “Indole derivatives with apoptosis inducing activity” (Zentaris GmbH, priority 2003, dated 2004)
